Entries after “also recorded” stand apart in the source; their conditions may differ.
Assays:
[1] = test system: squamous cell carcinoma cells HN30, HN12, Cal-27, and HSC-3; test: Inhibitory effect of compounds on the proliferation of squamous cell carcinoma cells HN30, HN12, Cal-27, HSC-3 (CCK-8 assay); assay type: cell-based; settings: in words, 48 hours; for inhibitory effect on the proliferation of tumor cells: HN30, HN12, Cal-27, HSC-3, 0, 1.25, 2.5, 5, 10 μM
Description: (§1) Squamous cell carcinoma cell lines: HN30, HN12, Cal-27, HSC-3.
(§2) Test compounds: Compounds 3a, 3b, 3c; Compound 1 (i.e., 5-fluorouracil).
(§3) The experimental procedure was as follows: All four tumor cell lines were cultured in a standardized incubator at 37 °C with 5% CO2. Cells in logarithmic growth phase were digested, counted, and seeded onto 96-well plates at 3000 cells/well. They were then cultured overnight in the incubator. The test compounds were prepared into a stock solution with DMSO at a concentration of 10 mM, and were diluted sequentially (0, 1.25, 2.5, 5, 10 μM) before treating the cells. The control group was treated with the highest concentration of DMSO. The cells were cultured for additional 48 hours in the incubator, and the effect of each compound on the proliferation of the four tumor cell lines was assessed using CCK-8 assay. Meanwhile, the experimental results of compound 3a and compound 1 were analyzed to obtain their IC50 values, and the effects of both compounds on tumor cell proliferation were compared.

HN30 cells = test: Inhibition of proliferation of HN30 squamous cell carcinoma cells (CCK-8 assay); assay type: cell-based; settings: 48 hours, 0, 1.25, 2.5, 5, 10 μM, read-out: IC50 values against HN30 cells
Description: as §1, §2, §3

Cal27 cells = test: Inhibition of proliferation of Cal27 squamous cell carcinoma cells (CCK-8 assay); assay type: cell-based; settings: Homo sapiens, CAL-27, 48 hours, 0, 1.25, 2.5, 5, 10 μM, read-out: IC50 values against Cal27 cells
Description: as §1, §2, §3

OSCC cells = settings: in words; Heilongjiang Medicine and Pharmacy, February 2009; cited from earlier work

Compound | inhibitory effect on the proliferation of tumor cells [1] | IC50 (HN30 cells) [µM] | IC50 (Cal27 cells) [µM] | induction of apoptosis in OSCC cells (OSCC cells) | IC50 value compared with compound 1 ([1]; compound 3a versus compound 1, FIGS. 2 and 3 (HN30 and Cal27))
O=c1[nH]cc(F)c(=O)[nH]1 [Compound 1, 5-fluorouracil] | higher anti-tumor activity in a higher concentration range | 21.7 | 22.8 | can induce apoptosis in OSCC cells | –
O=C(CCn1cc(F)c(=O)n(CCC(=O)Nc2ccc(C34CC5CC(CC(C5)C3)C4)cc2)c1=O)Nc1ccc(C23CC4CC(CC(C4)C2)C3)cc1 [Compound 3a] | significantly better inhibitory effect than 5-fluorouracil; also recorded: significantly higher than that of compounds 1, 3b, and 3c; also recorded: significantly better than that of 5-fluorouracil | 7.09 | 6.54 | – | significantly lower than that of compound 1
O=C(CCn1c(=O)[nH]cc(F)c1=O)Nc1ccc(C23CC4CC(CC(C4)C2)C3)cc1 [Compound 3c] | did not show significant improvement | – | – | – | –
O=C(CCn1cc(F)c(=O)[nH]c1=O)Nc1ccc(C23CC4CC(CC(C4)C2)C3)cc1 [Compound 3b] | did not show significant improvement | – | – | – | –

— patent US20260373148A1, “5-FLUOROURACIL DERIVATIVE AND ANTI-TUMOR USE THEREOF” (SICHUAN UNIVERSITY, priority 2023, published 2026)
